Earlier results in US20200171025A1, “PHARMACEUTICAL COMPOSITION COMPRISING BREXPIPRAZOLE AND PROCESS FOR PREPARATION THEREOF” (priority 2018, published 2020).

Settings: as per BCS

Compound: O=c1ccc2ccc(OCCCCN3CCN(c4cccc5sccc45)CC3)cc2[nH]1 [Brexpiprazole, 7-{4-[4-(1-Benzothiophen-4-yl)piperazin-1-yl]butoxy}quinolin-2(1H)-one]
- Aqueous solubility: low aqueous solubility
- Permeability: high permeability
